# Columns and labels:
# NLuc‐A2BR = target: T1, NLuc‐A2BR (Homo sapiens, UniProt P29275); experiment: NanoBRET competition binding against 50 nM PSB603‐BY630 in HEK293G cells expressing NLuc‐A2BR
# T1 construct: expressed in transfected cells
# T1 sequence (P29275 1-332): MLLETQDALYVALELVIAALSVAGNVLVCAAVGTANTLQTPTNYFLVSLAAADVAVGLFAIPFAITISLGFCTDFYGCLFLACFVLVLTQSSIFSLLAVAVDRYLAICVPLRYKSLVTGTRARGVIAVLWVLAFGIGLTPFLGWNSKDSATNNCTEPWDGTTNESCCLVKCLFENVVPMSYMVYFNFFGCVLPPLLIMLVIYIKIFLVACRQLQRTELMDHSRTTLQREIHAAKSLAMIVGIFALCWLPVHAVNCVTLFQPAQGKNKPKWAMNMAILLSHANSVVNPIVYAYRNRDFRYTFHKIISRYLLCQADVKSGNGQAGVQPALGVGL
# Procedure: Saturation and competition binding assays were performed as previously described.[36] Briefly, cells were seeded in 96‐well white clear‐bottomed Greiner plates pre‐treated with 10 μg/mL poly‐D‐lysine (Sigma‐Aldrich, Missouri USA) at a density of 30 000–35 000 cells per well in DMEM supplemented with 10% FBS. […] The NanoLuc substrate, furimazine (Promega Corporation, Wisconsin, USA), was then added to each well (1:400 dilution) and the plate was incubated for 10 min in the dark at 37°C. The resulting bioluminescence resonance energy transfer (BRET) was measured using a PHERAstar FS plate reader (BMG Labtech) at 37°C. For each well, filtered light emissions at 460 nm (80 nm bandpass) and >610 nm (longpass) for the BODIPY630/650 ligand were simultaneously measured. BRET ratios were calculated by dividing the 610 nm emission by the 460 nm emission. All conditions were performed in 2–6 replicates within each plate. For kinetic experiments, cells were preincubated for 10 min with 1:400 dilution of furimazine prior to addition of 200 nM PSB603‐BY630 and BRET ratios determined every 0.5 min.
# The IC 50 values were then used to calculate the K i values using the Cheng‐Prussoff equation: Ki=IC50/1+L/KD where [L] is the concentration of PSB603‐BY630 in nM, and K D is the dissociation constant of that fluorescent ligand in nM.
# [1] = target: T2, endogenous A2BR in human monocyte‐derived M1‐like macrophages (Homo sapiens, UniProt P29275); experiment: Flow cytometry of PSB603‐BY630 binding to M1‐like macrophages; type: cell-based; details: 100 nM PSB603‐BY630, 10 μM unlabelled PSB603, six donors, p <.01 paired t‐test
# T2 construct: monitor endogenous A2BR expression on human macrophages; endogenous in cells; host or cells: M1-like (GMCSF) and M2-like (MCSF) macrophages differentiated from CD14+ monocytes of healthy human donors
# T2 sequence (P29275 1-332): T1 sequence (P29275 1-332)
# Procedure: (§1) One hundred and fifty milliliter peripheral blood was obtained in heparinised 60 mL syringes by venepuncture from healthy volunteers after written informed consent (Ethics from University of Nottingham Ethics committee, ref 161–1711). Peripheral blood mononuclear cells (PBMC) were immediately separated by density centrifugation over Lymphoprep (Stemcell, UK) at 800g for 25 min on low brake followed by washes in endotoxin‐free phosphate‐buffered saline (PBS, Sigma). PBMC were washed in MACS buffer (PBS + 1% fetal calf serum (FCS, Sigma) + […] (Sigma)) then incubated with CD14 microbeads (Miltenyi Biotech) and monocytes isolated by magnetic separation on an AutoMACS Pro cell separator (Miltenyi). Cell purity was routinely assessed by flow cytometry (>95%). […]
# (§2) Harvested macrophages were resuspended in staining buffer (HBSS [Sigma] supplemented with 2.5% v/v FCS and Ethylenediaminetetraacetic acid‐ EDTA 5 mM) at 2 × 10^6 cells/mL. […] BODIPY 630/650 fluorescence was measured on a MACSQuant 10 Flow Cytometer (Miltenyi) immediately after incubation (>5 × 10^4 events acquired). Flow cytometry data were analyzed using FlowJo software v10. […]
# [2] = target: T3, endogenous A2BR in human monocyte‐derived M2‐like macrophages (Homo sapiens, UniProt P29275); experiment: Flow cytometry of PSB603‐BY630 binding to M2‐like macrophages; type: cell-based; details: 100 nM PSB603‐BY630, 10 μM unlabelled PSB603, six donors, p <.01 paired t‐test
# T3 construct: monitor endogenous A2BR expression on human macrophages; endogenous in cells; host or cells: M1-like (GMCSF) and M2-like (MCSF) macrophages differentiated from CD14+ monocytes of healthy human donors
# T3 sequence (P29275 1-332): T1 sequence (P29275 1-332)
# Procedure: as §1, §2
# A2BR = test system: A2BR; set-up: method as in PMID 29106905, PMID 19569717; details: cited from earlier work
smiles,measurement,setting,value
"CCCn1c(=O)[nH]c2nc(-c3ccc(S(=O)(=O)N4CCN(c5ccc(Cl)cc5)CC4)cc3)[nH]c2c1=O [PSB603, 8‐[4‐[4‐(4‐Chlorophenzyl)piperazide‐1‐sulfonylphenyl]]‐1‐propylxanthine]",Appararent Log K i,NLuc‐A2BR,−9.12 ± 0.08
same,Log IC50,NLuc‐A2BR,−8.55 ± 0.08
same,inhibition of PSB603‐BY630 binding (median fluorescence intensity),[1],significant inhibiton
same,inhibition of PSB603‐BY630 binding (median fluorescence intensity),[2],significant inhibiton
same,affinity for A2BR,A2BR,sub‐nanomolar
